Results on 34 compounds are retold here after patent publication US11161846B2, “Substituted pyrazolo[4,3-b]pyridines and their use as GluN2B receptor modulators” (JANSSEN PHARMACEUTICA NV, priority 2019, dated 2021).

The test has as its target T1, human GluN1/GluN2B NMDA receptors (Homo sapiens, UniProt Q05586+Q13224).
T1 construct: expressed in transfected cells
Nature of the test: Calcium flux (FLIPR) assay on cloned human NR1/GluN2B ion channels expressed in mammalian cells, standard assay. As to conditions: glutamate ~EC40 and 10 μM glycine, stable cell line with Tet-On induced expression. The test is classed as cell-based. The procedure, abridged: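 Tet-On-induced stable mammalian line loaded with Calcium 5 dye (0.5 mM MgCl2 loading buffer), then assayed in pH 7.4 buffer with 137 mM NaCl, 4 mM KCl, 2 mM CaCl2. Compound was added for 5 min, then glutamate (~EC40) plus 10 µM glycine for 5 min. FLIPR fluorescence was normalized to control wells.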

pIC50: −log10 of the molar value.

T1 sequence (Q13224 27-1484, other chains not shown): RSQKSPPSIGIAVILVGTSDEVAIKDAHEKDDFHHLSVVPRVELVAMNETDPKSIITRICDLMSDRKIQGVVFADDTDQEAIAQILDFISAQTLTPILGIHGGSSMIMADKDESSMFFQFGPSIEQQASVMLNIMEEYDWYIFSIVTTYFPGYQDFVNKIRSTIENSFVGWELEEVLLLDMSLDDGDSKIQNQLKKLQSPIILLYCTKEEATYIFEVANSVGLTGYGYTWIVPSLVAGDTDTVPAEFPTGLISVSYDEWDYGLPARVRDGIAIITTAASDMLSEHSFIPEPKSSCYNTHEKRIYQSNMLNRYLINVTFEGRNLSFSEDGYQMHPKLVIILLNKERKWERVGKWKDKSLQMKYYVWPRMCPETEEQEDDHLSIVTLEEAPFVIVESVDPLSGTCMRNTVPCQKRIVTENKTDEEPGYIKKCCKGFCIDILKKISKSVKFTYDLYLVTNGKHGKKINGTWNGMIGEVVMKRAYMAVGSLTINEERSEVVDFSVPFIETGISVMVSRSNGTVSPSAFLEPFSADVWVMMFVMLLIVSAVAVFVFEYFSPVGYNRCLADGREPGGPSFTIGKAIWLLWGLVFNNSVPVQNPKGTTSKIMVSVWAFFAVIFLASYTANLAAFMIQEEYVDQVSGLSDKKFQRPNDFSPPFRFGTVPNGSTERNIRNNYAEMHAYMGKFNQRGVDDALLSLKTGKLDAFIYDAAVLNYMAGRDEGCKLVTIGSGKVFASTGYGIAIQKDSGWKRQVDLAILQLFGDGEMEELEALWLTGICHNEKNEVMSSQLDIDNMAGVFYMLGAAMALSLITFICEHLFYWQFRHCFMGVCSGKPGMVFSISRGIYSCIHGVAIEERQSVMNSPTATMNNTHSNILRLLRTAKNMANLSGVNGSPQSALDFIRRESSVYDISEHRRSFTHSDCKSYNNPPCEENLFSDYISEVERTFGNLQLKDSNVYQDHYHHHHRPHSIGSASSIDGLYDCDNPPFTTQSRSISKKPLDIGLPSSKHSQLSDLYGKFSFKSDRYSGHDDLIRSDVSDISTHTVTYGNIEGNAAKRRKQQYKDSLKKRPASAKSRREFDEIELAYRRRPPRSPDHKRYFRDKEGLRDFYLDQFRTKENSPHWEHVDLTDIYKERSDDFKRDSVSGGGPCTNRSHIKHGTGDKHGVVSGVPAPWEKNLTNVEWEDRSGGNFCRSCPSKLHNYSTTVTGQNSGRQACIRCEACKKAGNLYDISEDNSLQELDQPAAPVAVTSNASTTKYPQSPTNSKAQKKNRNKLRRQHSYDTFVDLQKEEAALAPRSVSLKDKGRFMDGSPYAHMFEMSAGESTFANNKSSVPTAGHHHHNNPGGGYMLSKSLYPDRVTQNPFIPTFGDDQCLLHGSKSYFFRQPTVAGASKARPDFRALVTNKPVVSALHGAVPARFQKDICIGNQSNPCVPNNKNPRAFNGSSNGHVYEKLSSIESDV

A word on the pIC50: it is the IC50 on a negative log10 scale, so that one unit is a factor of ten. For the compound `CN1C(=O)CCC1Cn1ncc2ncc(-c3ccc(F)c(OC(F)F)c3)cc21` (racemic) [Example 114, (RS)-5-((6-(3-(Difluoromethoxy)-4-fluorophenyl)-1H-pyrazolo[4,3-b]pyridin-1-yl)methyl)-1-methylpyrrolidin-2-one], the pIC50 is below 5.52.
Under `Cc1cc(-c2cnc3cnn(CC(=O)C4CCC4)c3c2)ccc1F` [Example 70, 1-Cyclobutyl-2-[6-(4-fluoro-3-methyl-phenyl)pyrazolo[4,3-b]pyridin-1-yl]ethanone] stands 7.20; under `O=C(Cn1ncc2ncc(-c3cccc(Cl)c3F)cc21)C1CC1` [Example 67, 2-[6-(3-Chloro-2-fluoro-phenyl)pyrazolo[4,3-b]pyridin-1-yl]-1-cyclopropyl-ethanone], 7.80; under `CCC(=O)Cn1ncc2ncc(-c3ccc(F)cc3)cc21` [Example 28, 1-[6-(4-Fluorophenyl)pyrazolo[4,3-b]pyridin-1-yl]butan-2-one], 7.49.
Under `CCC(F)(F)Cn1ncc2ncc(-c3ccc(F)c(OC(F)F)c3)cc21` [Example 99, 1-(2,2-Difluorobutyl)-6-[3-(difluoromethoxy)-4-fluoro-phenyl]pyrazolo[4,3-b]pyridine] stands 6.67; under `O=C(Cn1ncc2ncc(-c3ccc(F)c(C(F)F)c3)cc21)c1ccc(F)cn1` [Example 15, 2-(6-(3-(Difluoromethyl)-4-fluorophenyl)-1H-pyrazolo[4,3-b]pyridin-1-yl)-1-(5-fluoropyridin-2-yl)ethan-1-one], 6.80.
As for `CC(C)C(O)Cn1ncc2ncc(-c3ccccc3)cc21` (racemic) [Example 96, (RS)-3-Methyl-1-(6-phenylpyrazolo[4,3-b]pyridin-1-yl)butan-2-ol], the figure is 5.82; as for `CC1(Cn2ncc3ncc(-c4ccc(F)c(C(F)F)c4)cc32)COC1` [Example 110, 6-[3-(Difluoromethyl)-4-fluoro-phenyl]-1-[(3-methyloxetan-3-yl)methyl]pyrazolo[4,3-b]pyridine], 5.69.
Regarding `Cc1ccc(-c2cnc3cnn(CC(=O)C4CC4)c3c2)s1` [Example 56, 1-Cyclopropyl-2-[6-(5-methyl-2-thienyl)pyrazolo[4,3-b]pyridin-1-yl]ethanone], the pIC50 was 7.82.
In the case of `O=C(Cn1ncc2ncc(-c3ccc(F)c(C(F)F)c3)cc21)c1ccccn1` [Example 14, 2-[6-[3-(Difluoromethyl)-4-fluoro-phenyl]pyrazolo[4,3-b]pyridin-1-yl]-1-(2-pyridyl)ethanone], the pIC50 is 6.95.
As for `CC[S+]([O-])Cn1ncc2ncc(-c3cccc(C(F)(F)F)c3)cc21` (racemic) [Example 81, (RS)-1-(Ethylsulfinylmethyl)-6-[3-(trifluoromethyl)phenyl]pyrazolo[4,3-b]pyridine], the figure is 6.89; as for `CCC(=O)Cn1nc(F)c2ncc(-c3ccc(F)c(F)c3)cc21` [Example 35, 1-[6-(3,4-Difluorophenyl)-3-fluoro-pyrazolo[4,3-b]pyridin-1-yl]butan-2-one], 8.30.
As for `OC(Cn1ncc2ncc(-c3cccc(C(F)(F)F)c3)cc21)C1CC1` (racemic) [Example 100, (RS)-1-Cyclopropyl-2-[6-[3-(trifluoromethyl)phenyl]pyrazolo[4,3-b]pyridin-1-yl]ethanol], the figure is 6.54; as for `Fc1ccc(-c2cnc3cnn(CC4CCCO4)c3c2)cc1OC(F)F` (racemic) [Example 112, (RS)-6-[3-(Difluoromethoxy)-4-fluoro-phenyl]-1-(tetrahydrofuran-2-ylmethyl)pyrazolo[4,3-b]pyridine], 6.95; as for `CC(C)C(=O)Cn1ncc2ncc(-c3ccc(F)c(C(F)(F)F)c3)cc21` [Example 51, 1-[6-[4-Fluoro-3-(trifluoromethyl)phenyl]pyrazolo[4,3-b]pyridin-1-yl]-3-methyl-butan-2-one], 6.53.
As for `CON=C(Cn1ncc2ncc(-c3cccc(C(F)(F)F)c3)cc21)C(C)C` (mixture of isomers) [Example 105, (E/Z)-N-Methoxy-3-methyl-1-[6-[3-(trifluoromethyl)phenyl]pyrazolo[4,3-b]pyridin-1-yl]butan-2-imine], the figure is 5.28; as for `OC(Cn1ncc2ncc(-c3cc(F)c(F)c(F)c3)cc21)C1CC1` (racemic) [Example 10, (R/S)-1-Cyclopropyl-2-[6-(3,4,5-trifluorophenyl)pyrazolo[4,3-b]pyridin-1-yl]ethanol], 6.16; as for `O=C(Cn1ncc2ncc(-c3ccc(F)c(C(F)F)c3)cc21)c1ccsc1` [Example 138, 2-[6-[3-(Difluoromethyl)-4-fluoro-phenyl]pyrazolo[4,3-b]pyridin-1-yl]-1-(3-thienyl)ethanone], 7.00.
Take `CCC(=O)Cn1ncc2ncc(-c3ccc(F)c(C(F)(F)F)c3)cc21` [Example 39, 1-[6-[4-Fluoro-3-(trifluoromethyl)phenyl]pyrazolo[4,3-b]pyridin-1-yl]butan-2-one]: the negative-log IC50 (pIC50) is 7.12.
Under `CCC(=O)Cn1ncc2ncc(-c3cc(F)cc(F)c3)cc21` [Example 1, 1-[6-(3,5-Difluorophenyl)pyrazolo[4,3-b]pyridin-1-yl]butan-2-one] stands 7.72; under `COCCC(O)Cn1ncc2ncc(-c3cccc(C(F)(F)F)c3)cc21` (racemic) [Example 90, (RS)-4-Methoxy-1-[6-[3-(trifluoromethyl)phenyl]pyrazolo[4,3-b]pyridin-1-yl]butan-2-ol], 5.85; under `O=C(Cn1ncc2ncc(-c3ccc(Cl)s3)cc21)C1CC1` [Example 55, 2-[6-(5-Chloro-2-thienyl)pyrazolo[4,3-b]pyridin-1-yl]-1-cyclopropyl-ethanone], 8.10.
As for `CCC(O)Cn1ncc2ncc(-c3ccc(F)c(C(F)F)c3)cc21` (racemic) [Example 5, (RS)-1-[6-[3-(Difluoromethyl)-4-fluoro-phenyl]pyrazolo[4,3-b]pyridin-1-yl]butan-2-ol], the figure is 7.32.
Under `CC(C)C(=O)Cn1ncc2ncc(-c3cccc(F)c3F)cc21` [Example 48, 1-[6-(2,3-Difluorophenyl)pyrazolo[4,3-b]pyridin-1-yl]-3-methyl-butan-2-one] stands 6.76; under `CC(C)C(O)Cn1ncc2ncc(-c3cccc(C(F)(F)F)c3)cc21` (racemic) [Example 3, (RS)-3-Methyl-1-[6-[3-(trifluoromethyl)phenyl]pyrazolo[4,3-b]pyridin-1-yl]butan-2-ol], 6.25; under `CCC(=O)Cn1ncc2ncc(-c3ccc(F)c(F)c3)cc21` [Example 34, 1-[6-(3,4-Difluorophenyl)pyrazolo[4,3-b]pyridin-1-yl]butan-2-one], 7.77.
On to `O=C1NCC(Cn2ncc3ncc(-c4ccc(F)c(OC(F)F)c4)cc32)O1` (racemic) [Example 125, (RS)-5-[[6-[3-(Difluoromethoxy)-4-fluoro-phenyl]pyrazolo[4,3-b]pyridin-1-yl]methyl]oxazolidin-2-one], for which the pIC50 was 6.30.
Under `O=C(Cn1ncc2ncc(-c3ccc(F)c(C(F)F)c3)cc21)c1cccnc1` [Example 16, 2-(6-(3-(Difluoromethyl)-4-fluorophenyl)-1H-pyrazolo[4,3-b]pyridin-1-yl)-1-(pyridin-3-yl)ethan-1-one] stands 7.05; under `CN1C[C@@H](Cn2ncc3ncc(-c4ccc(F)c(C(F)F)c4)cc32)CC1=O` [Example 121, (S)-4-[[6-[3-(Difluoromethyl)-4-fluoro-phenyl]pyrazolo[4,3-b]pyridin-1-yl]methyl]-1-methyl-pyrrolidin-2-one], 6.16.
Under `O=C(Cn1ncc2ncc(-c3ccc(F)c(C(F)(F)F)c3)cc21)C1CC1` [Example 74, 1-Cyclopropyl-2-[6-[4-fluoro-3-(trifluoromethyl)phenyl]pyrazolo[4,3-b]pyridin-1-yl]ethanone] stands 7.44; under `O=C(Cn1ncc2ncc(-c3ccc(F)cc3)cc21)C1CC1` [Example 59, 1-Cyclopropyl-2-[6-(4-fluorophenyl)pyrazolo[4,3-b]pyridin-1-yl]ethanone], 7.89; under `CCC(O)Cn1ncc2ncc(-c3ccc(Cl)c(OC(F)F)c3)cc21` (racemic) [Example 93, (RS)-1-[6-[4-Chloro-3-(difluoromethoxy)phenyl]pyrazolo[4,3-b]pyridin-1-yl]butan-2-ol], 6.38.
Under `CCC(=O)Cn1ncc2ncc(-c3ccc(F)c(C(C)(F)F)c3)cc21` [Example 37, 1-[6-[3-(1,1-Difluoroethyl)-4-fluoro-phenyl]pyrazolo[4,3-b]pyridin-1-yl]butan-2-one] stands 7.39; under `CN1CC[C@H](Cn2ncc3ncc(-c4ccc(F)c(C(F)F)c4)cc32)C1=O` [Example 118, (R)-3-[[6-[3-(Difluoromethyl)-4-fluoro-phenyl]pyrazolo[4,3-b]pyridin-1-yl]methyl]-1-methyl-pyrrolidin-2-one], 6.90.
